Experimental data: patent US20240083873A1, “PYRIMIDINE CARBOXAMIDE COMPOUND AND APPLICATION THEREOF” (SHANGHAI MEIYUE BIOTECH DEVELOPMENT CO., LTD, priority 2020, published 2024)

Assays:
[1] = target: recombinant human Vanin-1 (Homo sapiens (Human), UniProt O95497); assay: Vanin-1 recombinant enzyme activity inhibition assay; type: biochemical; conditions: Pantetheine 7-amino-4-trifluoromethylcoumarin substrate 45 μM, data at the 30th minute
Description: 1. Vanin-1 Recombinant Enzyme Activity Inhibition Assay
A certain mass of the compound was weighed precisely, and prepared with DMSO and reaction buffer (50 mM Tris base, 50 mM KCl, 1.6 mM cysteamine, 0.005% Brij 35, pH 8.0, prepared when using) to a maximum concentration of 10000 nM, then diluted in a 4-fold gradient, and prepared into 10 compound working solutions with different concentrations; • for the activity inhibition reaction of recombinant human Vanin-1 (Biorab, JN0618), 2.5 μL of compound working solution and 5 μL of recombinant human Vanin-1 protein were first mixed. […] Raw data at the 30th minute were collected for data processing and analysis, then the concentration-effect curve was fitted with GraphPad Prism 8 software, and the IC50 of the compound concentration was calculated.

[2] = In vivo pharmacokinetic evaluation in mice; conditions: C57BL6 mice; for Peak concentration Cmax: plasma
Text: 2. In Vivo Pharmacokinetic Evaluation in Mice
To detect pharmacokinetic parameters of the compounds of the present disclosure in C57BL6 mice
The vehicle used in the experiment was: DMSO:Solutol:PBS=5%:25%:70% (v/v/v). Preparation method: The required compound was weighed accurately, added with a certain volume of DMSO in a certain proportion, vortex-mixed until completely dissolved, then added successively with Solutol and PBS according to the above proportion, and mixed well. The vehicles used in the intravenous (iv) administration group and oral (po) administration group were the same vehicles in the experiment. The intravenous dose was 1 mpk and the oral dose was 2 mpk. Experimental blood collection time points: IV group: 0.083, 0.25, 0.5, 1, 2, 4, 7, 24 h. PO group: 200 μL of whole blood was collected from jugular vein at each time point of 0.25, 0.5, 1, 2, 4, 7 and 24 h, anticoagulated with EDTA-K2, and immediately centrifuged at 4000 rpm for 5 minutes at 4° C. The supernatant was taken and the samples were frozen and stored in a refrigerator at −80° C. Processing of plasma samples: The sample was precipitated with ACN/MeOH (1:1, v/v) precipitant containing internal standard, then centrifuged at 14000 rpm for 5 minutes. The supernatant was taken into LC-MS/MS (AB Triple Quard 5500) for analysis to obtain plasma concentrations, and parameters were calculated by the non-compartmental model of Winnolin 8.1 version.

[3] = intragastric administration group po, 2 mpk
[4] = intravenous injection group iv, 1 mpk

recombinant human Vanin-1, sequence (O95497 22-513): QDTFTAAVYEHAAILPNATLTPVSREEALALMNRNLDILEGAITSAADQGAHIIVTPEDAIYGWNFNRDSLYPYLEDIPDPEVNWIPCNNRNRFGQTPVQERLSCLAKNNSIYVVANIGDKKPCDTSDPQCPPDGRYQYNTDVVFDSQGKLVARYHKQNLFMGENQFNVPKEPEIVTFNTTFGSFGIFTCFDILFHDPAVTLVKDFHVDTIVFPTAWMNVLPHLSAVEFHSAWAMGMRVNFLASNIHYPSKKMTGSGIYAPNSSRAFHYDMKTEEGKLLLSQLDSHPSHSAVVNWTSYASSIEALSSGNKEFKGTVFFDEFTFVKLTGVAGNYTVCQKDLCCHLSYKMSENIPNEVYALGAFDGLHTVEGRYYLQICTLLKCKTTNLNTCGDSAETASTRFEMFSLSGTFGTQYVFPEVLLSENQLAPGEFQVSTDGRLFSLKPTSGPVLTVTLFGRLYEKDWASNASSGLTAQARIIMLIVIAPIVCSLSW

Q: Which IC50 [1] does the source give for `O=C(c1cnc(NC2CCc3ncccc32)nc1)N1CCC2(CCOCC2)C1` (centres unmarked) [Compound 2] here?
A: 8.9 nM

Q: For `CCC1(CC)CCN(C(=O)c2cnc(N[C@@H]3CCc4ncccc43)nc2)C1` [Compound 13], which IC50 [1] is on record?
A: 4.2 nM

Q: With `CC(=O)N(C)C1CCN(C(=O)c2cnc(N[C@@H]3CCc4ncccc43)nc2)C1` (some centres unmarked) [Compound 17] as the molecule, how does the IC50 [1] read?
A: 0.6 nM

Q: What about the “Area under the curve AUC0-7h” value [2, 3] of the same molecule?
A: 684.31 ng·h/mL

Q: What about the “Clearance rate CL” value [2, 3] of the same molecule?
A: 48.6622 mL/min/kg

Q: What about the “Distributed solvent Vd” value [2, 3] of the same molecule?
A: 4.55 L/kg

Q: What about the “Half-life T1/2” value [2, 3] of the same molecule?
A: 1.05 h

Q: What about the “Peak concentration Cmax” value [2, 3] of the same molecule?
A: 539.37 ng/mL

Q: And the “Area under the curve AUC0-7h” value [2, 4]?
A: 557.60 ng·h/mL

Q: And the “Clearance rate CL” value [2, 4]?
A: 33.857 mL/min/kg

Q: And the “Distributed solvent Vd” value [2, 4]?
A: 2.60 L/kg

Q: What about the “Half-life T1/2” value [2, 4] of the same molecule?
A: 0.93 h

Q: What about the “Peak concentration Cmax” value [2, 4] of the same molecule?
A: 742.33 ng/mL

Q: What about the “Bioavailability F %” value ([2]; po 2 mpk vs iv 1 mpk) of the same molecule?
A: 61.4%

Q: With `Cc1ccc2c(n1)CCC2Nc1ncc(C(=O)N2CCC3(CCOCC3)C2)cn1` (centres unmarked) [Compound 19] as the molecule, how does the IC50 [1] read?
A: 2.9 nM

Q: And the “Area under the curve AUC0-7h” value [2, 3]?
A: 1459.29 ng·h/mL

Q: And the “Clearance rate CL” value [2, 3]?
A: 21.9452 mL/min/kg

Q: And the “Distributed solvent Vd” value [2, 3]?
A: 2.91 L/kg

Q: What about the “Half-life T1/2” value [2, 3] of the same molecule?
A: 1.52 h

Q: And the “Peak concentration Cmax” value [2, 3]?
A: 766.60 ng/mL

Q: For `Cc1cnc2c(c1)C(Nc1ncc(C(=O)N3CCC4(CCOCC4)C3)cn1)CC2` (centres unmarked) [Compound 21], which IC50 [1] is on record?
A: 6.9 nM

Q: Which IC50 [1] does the source give for `O=C(c1cnc(NC2CCc3ncc(Br)cc32)nc1)N1CCC2(CCOCC2)C1` (centres unmarked) [Compound 23] here?
A: 1.7 nM

Q: For `CCC(=O)N(C)C1CCN(C(=O)c2cnc(N[C@@H]3CCc4ncccc43)nc2)C1` (some centres unmarked) [Compound 26], which IC50 [1] is on record?
A: 2 nM
